The numbers were not newly measured in patent publication US6846809B2, “PEI: DNA vector formulations for in vitro and in vivo gene delivery” (Board of Regents, The University of Texas System, priority 2000, dated 2005), which cites them from elsewhere.

Structures can show the parent of a compound that is named as a salt. Where two headings read alike, the source gives them in different places. *1 amine or outer side, *2 acyl side, *3 side chain or, on linkers, in order; H or OH if unused. Where a SMILES comes first, the peptide text is derived from it. Bridges are numbered along the chain shown (N, C = ends). Roman numbers before positions name the chains, in order. [ ]: non-standard residue; d: D form. Actinocin(9to1) = Cc1c2oc3c(C)ccc(C(=O)[*:1])c3nc-2c(C(=O)[*:2])c(N)c1=O; NMeV = CN[C@H](C(=O)O)C(C)C; Sar = CNCC(=O)O

The test system of data set [1] is chronic myelogenous leukemia. To be noted: previously untreated.
In another data set the test system is multiple myeloma. To be noted: oral administration.
For another data set, the system named is certain animal tumors. To be noted: in vivo.
For data set [2] the following is noted: mouse, in vivo.
Data set [3] relates to Hodgkin's Disease, testicular tumors, squamous cell cancers.

Turning to `Cc1c2oc3c(C)ccc(C(=O)N[C@@H]4C(=O)N[C@H](C(C)C)C(=O)N5CCC[C@H]5C(=O)N(C)CC(=O)N(C)[C@@H](C(C)C)C(=O)O[C@@H]4C)c3nc-2c(C(=O)N[C@@H]2C(=O)N[C@H](C(C)C)C(=O)N3CCC[C@H]3C(=O)N(C)CC(=O)N(C)[C@@H](C(C)C)C(=O)O[C@@H]2C)c(N)c1=O` [Actinomycin D] (I: T[dV]P[Sar][NMeV] / II: T[dV]P[Sar][NMeV]; ester I:1-I:C, II:1-II:C; linker I:N-II:N via Actinocin(9to1)), where the note is “human, in vivo”, the blood-brain barrier passage result is “does not pass the blood-brain barrier”, the “fraction of dose excreted in the urine” value is given as 10%, the “fraction of dose excreted intact into the bile” value was “Half of the dose” and the half-life entry is “about 36 hours”.
As to `CS(=O)(=O)OCCCCOS(C)(=O)=O` [Busulfan, 1,4-butanediol dimethanesulfonate], the “adults obtaining hematologic remission” value in data set [1] is given as “Approximately 90%”.
In the case of `O=C(O)CCCc1ccc(N(CCCl)CCCl)cc1` [Chlorambucil, 4-[bis(2-chlorethyl)amino] benzenebutanoic acid], for the setting “human, in vivo”, the “oral / gastrointestinal absorption” value was “rapidly and completely absorbed”. Further, the terminal half-life entry (plasma) is “about 1.5 hours”. Besides, the “time to peak plasma levels” value (single oral doses of about 0.6 mg/kg to about 1.2 mg/kg) is listed as “within one hour”.
With `O.O=P1(N(CCCl)CCCl)NCCCO1` (centres unmarked) [Cyclophosphamide, 2H-1,3,2-Oxazaphosphorin-2-amine, N,N-bis(2-chloroethyl)tetrahydro-, 2-oxide, monohydrate], under “human, in vivo”, the “stability in the gastrointestinal tract” value is “stable in the gastrointestinal tract”. Besides, for the setting “oral and parental routes”, the local tolerance entry is reported as “does not cause local vesication, necrosis, phlebitis or even pain”.
With `COc1cccc2c1C(=O)c1c(O)c3c(c(O)c1C2=O)C[C@@](O)(C(C)=O)C[C@@H]3O[C@H]1C[C@H](N)[C@H](O)[C@H](C)O1` [Daunorubicin, 5,12-Naphthacenedione, (8S-cis)-8-acetyl-10-[(3-amino-2,3,6-trideoxy-a-L-lyxo-hexanopyranosyl)oxy]-7,8,9,10-tetrahydro-6,8,11-trihydroxy-10-methoxy-, hydrochloride], where the note is “human, in vivo”, the elimination half-life result is given as “about 19 hours”, the “fraction secreted into the bile” value was “about 40%”, the half-life of distribution was 45 min and the “oral / gastrointestinal absorption” value is “poor”.
Regarding `COc1cccc2c1C(=O)c1c(O)c3c(c(O)c1C2=O)C[C@@](O)(C(=O)CO)C[C@@H]3O[C@H]1C[C@H](N)[C@H](O)[C@H](C)O1` [Doxorubicin, 5,12-Naphthacenedione, (8s-cis)-10-[(3-amino-2,3,6--trideoxy-a-L-lyxo-hexopyranosyl)oxy]-7,8,9,10-tetrahydro-6,8,11-trihydroxy-8-(hydroxyacetyl)-1-methoxy-hydrochloride], where the note is “human, in vivo”, the elimination half-life entry is reported as “about 30 hours” and the “fraction of dose excreted in the urine” value is on record as “a few percent”.
With `O=NN(CCCl)C(=O)NC1CCCCC1` [Lomustine, 1-(2-chloro-ethyl)-3-cyclohexyl-1 nitrosourea], under “human, in vivo”, the “serum half-life of the metabolites” value was 16 hours to about 2 days. The “radioactivity excreted as degradation products within 24 hours” value (oral radioactive drug, about 30 mg/m^2 to 100 mg/m^2) is “about half”.
As to `N[C@@H](Cc1ccc(N(CCCl)CCCl)cc1)C(=O)O` [Melphalan, 4-[bis(2-chloroethyl)amino]-L-phenylalanine], in the data set with multiple myeloma, the “patients showing a favorable response” value was “about one third to one half”.
`CO[C@@]12[C@H](COC(N)=O)C3=C(C(=O)C(C)=C(N)C3=O)N1C[C@@H]1N[C@@H]12` [Mitomycin]: the “time required to reduce the serum concentration by about 50%” value (30 mg bolus injection) was 17 min. Besides, the “fraction of dose excreted in the urine” value (human, in vivo) is “Approximately 10%”.
Regarding `CC[C@]1(O)C[C@@H]2CN(CCc3c([nH]c4ccccc34)[C@@](C(=O)OC)(c3cc4c(cc3OC)N(C)[C@H]3[C@@](O)(C(=O)OC)[C@H](OC(C)=O)[C@]5(CC)C=CCN6CC[C@]43[C@@H]65)C2)C1` [Vinblastine], the “fraction of dose recovered in the feces” value (after biliary excretion) is “about 10%”. Besides, for the setting “human, in vivo”, the “distribution into blood cells” value is “extensively concentrated in platelets” and the “fraction of dose excreted in the urine” value is on record as “Approximately 15%”.
Take `CC[C@]1(O)C[C@H]2CN(CCc3c([nH]c4ccccc34)[C@@](C(=O)OC)(c3cc4c(cc3OC)N(C=O)[C@H]3[C@@](O)(C(=O)OC)[C@H](OC(C)=O)[C@]5(CC)C=CCN6CC[C@]43[C@@H]65)C2)C1` [Vincristine]: the “distribution into blood cells” value (human, in vivo) is “extensively concentrated in platelets”.
`COc1cccc2c1C(=O)c1c(O)c3c(c(O)c1C2=O)C[C@@](O)([C@H](C)O)C[C@@H]3O[C@H]1C[C@H](N)[C@H](O)[C@H](C)O1` [daunorubicinol]: the half-life entry (human, in vivo) was “about 27 hours”.
Take `N[C@H](Cc1ccc(N(CCCl)CCCl)cc1)C(=O)O` [medphalan]: in the data set with certain animal tumors, the “activity compared with the L-isomer” value is recorded as “less active against certain animal tumors”.
Bleomycin: in data set [2], the “concentrations in hematopoietic tissue / bone marrow” value was “low concentrations”. In data set [2], the “concentrations in skin, lungs, kidneys, peritoneum, and lymphatics” value is “high concentrations”. Besides, the time to improvement in data set [3] (Hodgkin's Disease and testicular tumors) is ≤ 2 weeks; in data set [3] (squamous cell cancers), ≤ 3 weeks. Besides, for the setting “human, in vivo”, the “fraction of dose excreted in the urine” value is 60-70%.
